The text below walks through data of patent US12102633B2, “Spirolactone compounds” (Quixgen, Inc., priority 2017, dated 2024).

For assay [1], the system named is T1, Mouse ACC (ACC protein purified from liver).
T1 construct: ACC protein was purified by taking advantage of the biotinylation in the carboxylase domain
Kind of assay: Mouse ACC enzymatic activity assay. It is filed as biochemical. The settings on record: read-out: EA-CoA mACC IC50. On the procedure:
ACC protein was purified by taking advantage of the biotinylation in the carboxylase domain. Male C57BL/6J mice (Jackson Laboratory) at 8-12 weeks of age were euthanized by using CO2 inhalation method and liver was immediately frozen on dry ice. To 100 mg liver was added 1 mL ice-cold tissue lysis buffer (20 mM Tris-HCl pH 7.5, 150 mM NaCl, 1 mM Na2EDTA, 1 mM EGTA, 1% Triton, 2.5 mM sodium pyrophosphate, 1 mM 3-glycerophosphate, 1 mM Na3VO4, 1 μg/mL leupeptin, 1 tablet of protease inhibitor cocktail (Roche) per 10 mL lysis buffer) followed by homogenization on ice with Power Gen 125 homogenizer (Fisher Scientific). After 30 min incubation on ice, tissue lysate was passed through a 10 mL syringe with 18½ G needle for 10 times to shear DNA. The lysate was then subject to 17.5%-35% saturated ammonium sulfate precipitation by adding 880 mg ammonium sulfate powder (Sigma) to 10 mL liver lysate in 10 min with stirring on ice. Sample was centrifuged at 14,000 rpm (Eppendorf) at 4° C. for 10 min and supernatant was saved for further precipitation by adding 880 mg ammonium sulfate powder to 10 ml supernatant in 10 min with stirring on ice. Sample was centrifuged at 14,000 rpm at 4° C. for 10 min. Supernatant was discarded and pellet was dissolved in 10 mL sample buffer (100 mM Tris-HCl, pH 7.5, 1 mM EDTA, 0.1 mM DTT, 0.5 M NaCl, and 5% glycerol). The sample was then added with 1 mL of Strep Mag beads slurry (Genscript) and rotated at 4° C. for 1 hour. Supernatant was discarded and beads were washed with sample buffer for 3 times. Protein was then eluted by adding 10 mL of 2 mM biotin (Promega) prepared in sample buffer. The eluate was then dialyzed at 4° C. for 1 hour by using Slide-A-Lyzer™ Dialysis Cassettes 10K MWCO (Thermo Fisher Scientific) against 3 changes of 200 mL dialysis buffer (50 mM HEPES, pH 7.5, 0.1 mM DTT, 1.0 mM EDTA, and 10% glycerol). Total protein concentration was then quantitated by using BCA protein assay kit (Pierce).
For ACC enzymatic activity assay, 1 μL serial diluted compounds prepared in DMSO in duplicate were mixed with 8 μL dialyzed sample at 37° C. for 10 min. Ninety one L of reaction buffer (50 mM HEPES pH 7.5, 10 mM MgCl2, 2.0 mM DTT, 0.5 mM acetyl-CoA, 4.0 mM ATP, 15 mM ^13C-NaHCO3, 0.75 mg/mL BSA, 0.5 mM sodium citrate) was added to the tube and mixed thoroughly. After incubation at 37° C. for 1 hour, 300 μl ice-cold quenching buffer (acetonitrile:methanol=1:1, 20 μM carbutamide as internal standard) was added to each tube and mixed well to terminate the reaction. Samples were centrifuged at 14,000 rpm for 10 min (Eppendorf) and supernatant was loaded onto LC-MS/MS for quantitation of malonyl-^13C-CoA (Gao et al., Journal of chromatography B, Analytical technologies in the biomedical and life sciences 853, 303-313 (2007)).
(§1) Shimadzu LC system was used for sample analysis consisting of system controller (Shimadzu CBM-20A), autosampler (Shimadzu SIL-20A), pump A and B (Shimadzu LC-20AD), column oven (Shimadzu CTO-20A), and analytical column (Phenomenex Gemini 5u C18 11A, 100×2 mm). LC was running at 200 μL/min in the binary gradient mode with mobile phase A (5 mM Ammonium Acetate and 5 mM DMBA in water (1,3-Dimethylbutylamine)) and B (methanol). The samples were analyzed on an AB Sciex QTrap4000 LC-MS/MS triple quadrupole mass spectrometer (Applied Biosystems). Malonyl-CoA and malonyl-13C-CoA were monitored in positive ion mode following MRM transitions at 854.2/347.1 and 855.1/246.1, respectively. The product and internal standard were coeluted to the mass spectrometer in 3 s with 50% H2O, 25% MeCN, 25% acetone, and 5 mM ammonium acetate. Ion chromatograms were integrated using the Analyst 1.5.2 software. Peak area ratios were compared against a standard curve and final cellular concentration of malonyl-CoA or production rate of malonyl-13C-CoA was calculated as pmoles/mg protein per minute.

A further assay has as its system Human sebocytes. Kind of assay: Cellular levels of malonyl-CoA in human sebocytes. It is filed as cell-based. The settings on record: 0.5 h, 30 min incubation, read-out: Malonyl-CoA in Sebo IC50. On the procedure: as §1
Human sebocytes (Celprogen) were grown in growth media (DMEM with 4.5 g/L glucose, 0.584 g/L L-glutamine (Sigma), 100 units/mL of penicillin and 100 μg/mL of streptomycin (Gibco), 10% fetal bovine serum (Gibco)) at 37° C. in a humidified water jacketed incubator (Forma Scientific) supplemented with 5% CO2 till 100% confluency. Cells grown in 152 cm^2 cell culture dish (Corning) were trypsinized with 0.25% trypsin-EDTA (Gibco), centrifuged at 800 rpm for 10 min (Eppendorf) and resuspended in 4 mL growth media. To 1 μL serial diluted compounds in DMSO, 99 μL cells (around 0.5 million cells suspended in growth media) were added and mixed well followed by incubation in cell culture incubator for 30 min. Cells were then centrifuged at 800 rpm for 10 min and 70 μL 10% trichloroacetic acid was added to each well to lyse the cells and precipitate proteins. Cellular levels of malonyl-CoA were quantitated by LC-MS/MS.

A further assay concerns the target T2, human ACC2 (Homo sapiens, UniProt O00763).
T2 construct: purchased BPS Bioscience
Kind of assay: Human ACC enzymatic activity assay (ACC2). The settings on record: purified human ACC2; read-out: EA-CoA hACC 2 IC50. The format is biochemical. On the procedure: (§2) Human ACC enzymatic activity assays were performed by using purified human ACC1 and ACC2 proteins (BPS Bioscience). ACC1 and ACC2 proteins were diluted in 24.5 μL reaction buffer (50 mM HEPES pH 7.5, 10 mM MgCl2, 2.0 mM DTT, 4.0 mM ATP, 15 mM ^13C-NaHCO3, 0.75 mg/mL BSA, 0.5 mM sodium citrate), and final concentrations of ACC1 and ACC2 were 0.4 μg/mL and 0.48 μg/mL. For each reaction, 0.5 μL of serial diluted compounds were prepared in DMSO in duplicate or triplicate and mixed with the above 24.5 μL reaction mixtures with ACC proteins at 37° C. for 10 min. Meanwhile, 25 μL of reaction buffer plus acetyl-CoA (final concentration: 5 μM) was prepared freshly and added to the above 25 μL mixture to initiate the reaction. After incubation at 37° C. for 1-2 hours, 100 μl ice-cold 10% TCA with malonyl-^13C3-CoA (final concentration: 40 nM, Sigma-Aldrich) was added to terminate the reaction. For LC-MS/MS analysis, 300 μL quenching buffer (acetonitrile:methanol=1:1, 20 μM carbutamide as internal standard) was added to each tube and mixed well. Samples were then centrifuged at 14,000 rpm for 10 min (Eppendorf) and supernatants were loaded onto LC-MS/MS for quantitation of […] (Gao et al., Journal of chromatography B, Analytical technologies in the biomedical and life sciences 853, 303-313 (2007)).
as §1

In a further assay the target is T3, human ACC1 (Homo sapiens, UniProt Q13085).
T3 construct: purchased BPS Bioscience
Briefly: Human ACC enzymatic activity assay (ACC1). The format is biochemical. The note with it: purified human ACC1; read-out: EA-CoA hACC 1 IC50. On the procedure: as §2, §1

T2 sequence (O00763 whole entry): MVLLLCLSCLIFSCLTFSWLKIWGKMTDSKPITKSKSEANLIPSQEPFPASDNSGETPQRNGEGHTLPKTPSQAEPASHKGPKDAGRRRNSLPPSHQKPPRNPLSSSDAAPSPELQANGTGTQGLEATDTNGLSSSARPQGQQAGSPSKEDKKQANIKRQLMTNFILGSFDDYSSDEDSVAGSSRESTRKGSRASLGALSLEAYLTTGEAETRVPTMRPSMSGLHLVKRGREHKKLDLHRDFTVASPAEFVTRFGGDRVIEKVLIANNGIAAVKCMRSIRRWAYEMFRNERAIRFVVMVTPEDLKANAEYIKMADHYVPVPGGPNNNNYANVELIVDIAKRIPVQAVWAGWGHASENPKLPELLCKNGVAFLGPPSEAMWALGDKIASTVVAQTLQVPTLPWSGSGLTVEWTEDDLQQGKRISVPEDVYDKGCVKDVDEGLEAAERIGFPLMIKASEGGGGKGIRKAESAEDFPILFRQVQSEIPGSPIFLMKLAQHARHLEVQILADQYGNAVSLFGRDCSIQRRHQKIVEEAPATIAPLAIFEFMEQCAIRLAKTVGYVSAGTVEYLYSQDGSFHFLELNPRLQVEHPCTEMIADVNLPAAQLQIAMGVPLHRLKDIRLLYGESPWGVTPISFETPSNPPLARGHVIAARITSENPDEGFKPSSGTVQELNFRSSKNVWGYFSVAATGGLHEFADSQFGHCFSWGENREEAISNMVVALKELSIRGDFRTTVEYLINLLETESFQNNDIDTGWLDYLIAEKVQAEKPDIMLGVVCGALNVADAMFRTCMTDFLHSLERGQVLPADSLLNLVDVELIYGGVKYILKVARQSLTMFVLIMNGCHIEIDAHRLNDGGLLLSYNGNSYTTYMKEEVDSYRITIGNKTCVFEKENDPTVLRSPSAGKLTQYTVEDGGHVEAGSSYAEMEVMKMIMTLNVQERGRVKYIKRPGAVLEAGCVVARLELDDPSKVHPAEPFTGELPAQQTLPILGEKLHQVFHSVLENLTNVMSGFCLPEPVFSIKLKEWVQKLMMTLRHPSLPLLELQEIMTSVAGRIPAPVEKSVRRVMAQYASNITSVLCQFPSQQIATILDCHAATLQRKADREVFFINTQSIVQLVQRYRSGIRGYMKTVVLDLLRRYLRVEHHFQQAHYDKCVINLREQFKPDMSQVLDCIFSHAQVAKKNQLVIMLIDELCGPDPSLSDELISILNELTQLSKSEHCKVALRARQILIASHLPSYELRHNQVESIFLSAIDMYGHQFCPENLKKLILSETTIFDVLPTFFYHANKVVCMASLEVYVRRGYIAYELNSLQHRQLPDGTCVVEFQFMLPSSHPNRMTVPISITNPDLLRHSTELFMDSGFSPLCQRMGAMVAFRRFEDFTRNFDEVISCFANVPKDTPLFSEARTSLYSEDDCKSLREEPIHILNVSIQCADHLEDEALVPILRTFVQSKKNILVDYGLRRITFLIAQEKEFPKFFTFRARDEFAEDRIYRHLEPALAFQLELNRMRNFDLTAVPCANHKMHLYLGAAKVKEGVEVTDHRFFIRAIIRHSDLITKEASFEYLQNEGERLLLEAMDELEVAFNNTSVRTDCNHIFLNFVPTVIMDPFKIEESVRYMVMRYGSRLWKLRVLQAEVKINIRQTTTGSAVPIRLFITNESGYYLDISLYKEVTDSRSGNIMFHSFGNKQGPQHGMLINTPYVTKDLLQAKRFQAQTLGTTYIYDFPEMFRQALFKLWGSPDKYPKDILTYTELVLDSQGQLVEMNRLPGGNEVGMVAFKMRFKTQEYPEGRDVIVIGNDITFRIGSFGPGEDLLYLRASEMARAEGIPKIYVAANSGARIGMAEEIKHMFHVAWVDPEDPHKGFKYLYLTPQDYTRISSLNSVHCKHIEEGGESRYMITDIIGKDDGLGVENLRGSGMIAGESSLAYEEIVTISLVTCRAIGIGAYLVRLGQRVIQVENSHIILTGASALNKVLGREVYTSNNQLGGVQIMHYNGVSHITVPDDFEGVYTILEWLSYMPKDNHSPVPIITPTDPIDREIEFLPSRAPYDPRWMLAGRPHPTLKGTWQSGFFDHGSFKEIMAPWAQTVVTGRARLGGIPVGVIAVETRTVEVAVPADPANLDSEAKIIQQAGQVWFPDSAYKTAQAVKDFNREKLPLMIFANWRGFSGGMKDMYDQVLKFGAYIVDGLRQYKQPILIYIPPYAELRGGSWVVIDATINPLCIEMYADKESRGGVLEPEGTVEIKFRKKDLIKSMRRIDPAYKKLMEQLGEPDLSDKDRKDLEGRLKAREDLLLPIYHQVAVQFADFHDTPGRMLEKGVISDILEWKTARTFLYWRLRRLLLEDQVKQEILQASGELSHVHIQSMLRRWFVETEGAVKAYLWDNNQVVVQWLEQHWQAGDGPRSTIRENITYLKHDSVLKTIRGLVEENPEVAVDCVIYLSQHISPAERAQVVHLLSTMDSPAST

For the compound `COc1cc(C(=O)N2CCC3(CC2)Cc2ccc(Nc4ccnn4C)cc2C(=O)O3)cc2c(OC)cccc12` [Example 5, 1′-(4,8-dimethoxy-2-naphthoyl)-7-((1-methyl-1H-pyrazol-5-yl)amino)spiro[isochroman-3,4′-piperidin]-1-one], in assay [1], the IC50 was 0.37 nM.

Regarding `Cc1nc2ccc(C(=O)N3CCC4(CC3)Cc3ccc(C(C)C)cc3C(=O)O4)cc2[nH]1` [Example 7, 7-isopropyl-1′-(2-methyl-1H-benzo[d]imidazole-6-carbonyl)spiro[isochroman-3,4′-piperidin]-1-one], the IC50 in the assay with Human sebocytes stood at 6150 nM.

Regarding `CC(C)c1ccc2c(c1)C(=O)OC1(CCN(C(=O)c3ccc4[nH]ncc4c3)CC1)C2` [Example 8, 1′-(1H-indazole-5-carbonyl)-7-isopropylspiro[isochroman-3,4′-piperidin]-1-one], the 50% inhibitory concentration (IC50) in the assay on Human sebocytes is 442 nM.

As to `CC(C)c1ccc2c(c1)C(=O)OC1(CCN(C(=O)c3cc4ncccc4[nH]3)CC1)C2` [Example 9, 7-isopropyl-1′-(1H-pyrrolo[3,2-b]pyridine-2-carbonyl)-spiro[isochroman-3,4′-piperidin]-1-one], the IC50 in the assay with Human sebocytes came to 714 nM.

For the compound `CC(C)c1ccc2c(c1)C(=O)OC1(CCN(C(=O)c3ccc4cn[nH]c4c3)CC1)C2` [Example 10, 1′-(1H-indazole-6-carbonyl)-7-isopropylspiro-[isochroman-3,4′-piperidin]-1-one], the IC50 in the assay with Human sebocytes came to 676 nM.

With `COc1ccc2ncc(C(=O)N3CCC4(CC3)Cc3ccc(C(C)C)cc3C(=O)O4)cc2c1` [Example 11, 7-isopropyl-1′-(6-methoxyquinoline-3-carbonyl)spiro [isochroman-3,4′-piperidin]-1-one], in the assay on Human sebocytes, the IC50 amounted to 142 nM.

Turning to `CCc1nc2ccc(C(=O)N3CCC4(CC3)Cc3ccc(C(C)C)cc3C(=O)O4)cc2[nH]1` [Example 12, 1′-(2-ethyl-1H-benzo[d]imidazole-6-carbonyl)-7-isopropylspiro[isochroman-3,4′-piperidin]-1-one], the IC50 in the assay with Human sebocytes was determined as 3490 nM.

As for `CC(C)c1ccc2c(c1)C(=O)OC1(CCN(C(=O)c3ccc4[nH]c(=O)n(C)c4c3)CC1)C2` [Example 13, 7-isopropyl-1′-(3-methyl-2-oxo-2,3-dihydro-1H-benzo [d]imidazole-5-carbonyl)spiro[isochroman-3,4′-piperidin]-1-one], the IC50 with Human sebocytes stood at 2440 nM.

Regarding `COC(=O)c1cncc(-c2ccc3c(c2)C(=O)OC2(CCN(C(=O)c4cc(OC)c5cccc(C6CC6)c5n4)CC2)C3)c1` [Example 19, methyl 5-(1′-(8-cyclopropyl-4-methoxyquinoline-2-carbonyl)-1-oxospiro[isochroman-3,4′-piperidin]-7-yl)nicotinate], the IC50 on human ACC2 was determined as 740 nM; on human ACC1, 1120 nM.

Consider `COC(=O)c1cncc(-c2ccc3c(c2)C(=O)OC2(CCN(C(=O)c4cc(OC)c5c(C)cn(C6CC6)c5c4)CC2)C3)c1` [Example 21, methyl 5-(1′-(1-cyclopropyl-4-methoxy-3-methyl-1H-indole-6-carbonyl)-1-oxospiro[isochroman-3,4′-piperidin]-7-yl)nicotinate], for which the figures for the IC50 on human ACC2 and at human ACC1 were 221 nM and 296 nM, respectively.

With `COc1cc(C(=O)N2CCC3(CC2)Cc2ccc(-c4cncc(C(=O)O)c4)cc2C(=O)O3)cc2c1c(C)cn2C1CC1` [Example 22, 5-(1′-(1-cyclopropyl-4-methoxy-3-methyl-1H-indole-6-carbonyl)-1-oxospiro[isochroman-3,4′-piperidin]-7-yl)nicotinic acid], the IC50 at human ACC2 turned out to be 11.1 nM; at human ACC1, 23.9 nM.
